Consider 105 compounds from PubChem BioAssay AID1189 (EPA DSSTox, 2008).

Calls of active or inactive are those of the source.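 How the source made its calls: active means a tumor-causing dose value with its tumor site reported for any sex and species group of a rodent or other animal cancer study; inconclusive means only studies judged inadequate by the national testing program; inactive means tested in at least one study, none positive.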

A short description of this series: DSSTox (CPDBAS) Carcinogenic Potency Database Summary SingleCellCall Results. Particulars: animal chronic carcinogenicity bioassays, CPDB summary call. An excerpt: The Carcinogenic Potency Database (CPDB) is a unique and widely used international resource of the results of over 6500 chronic, long-term animal cancer tests on over 1500 chemical substances. The CPDB provides easy access to the bioassay literature, with qualitative and quantitative analyses of both positive and negative experiments that have been published over the past 50 years in the general literature and by the National Cancer Institute/National Toxicology Program. The CPDB standardizes the diverse literature of cancer bioassays that vary widely in protocol, histopathological examination and nomenclature, and in the published author's choices of what information to provide in their papers. Results are reported in the CPDB for tests in rats, mice, hamsters, dogs, and nonhuman primates, and are based on the most positive result among all experiments for each sex-species. The DSSTox CPDBAS (all species) file incorporates data from the CPDB Summary Tables for the full list of over 1500 chemical substances tested in at least one species. A summary SingleCellCall, based on experimental bioassay results of one or more species, is provided for the entire DSSTox CPDBAS file (see Source URL).
An assignment of categorical carcinogenic activity based on minimal evidence for or against activity. […] Associated TD50 values and tumor site details for the relevant species/sex experiment supporting this overall CPDBAS SingleSiteCall are provided in the full CPDBAS DSSTox file (see Comment) and the corresponding CPDBAS Species Bioassay in PubChem.
For `O=[As](O)(O)O`, the outcome was inactive.
Under `CCN(CC)C(=S)[S-].CCN(CC)C(=S)[S-].[Cd+2]` stands “inactive”.
Under `Cc1c(N)nc(C)c2c1[nH]c1ccccc12` stands “active”; under `O=S(=O)([O-])[O-].[O]=[V+2]`, “inactive”.
With `O=[N+]([O-])O`, the outcome was “inactive; active”.
As to `NNC(=O)c1ccccc1`, the result was active.
Regarding `CCc1cc(C(N)=S)ccn1`, the outcome was “active; inactive”.
Under `CC(C)(C)c1cc(CO)cc(C(C)(C)C)c1O` stands “inactive”; under `OCC(O)CO`, “inactive”.
On to `OC(Cn1cncn1)(Cn1cncn1)c1ccc(F)cc1F`, for which the outcome was “active; inactive”.
Under `OC(c1ccc(Cl)cc1)(c1ccc(Cl)cc1)C(Cl)(Cl)Cl` stands “active”.
Under `CS(=O)(=O)OCCCCOS(C)(=O)=O` stands “inactive”; under `c1ccc(OCC2CO2)cc1` (stereo not given), “active”.
In the case of `COc1cccc(O)c1O`, the result was active.
Under `C=CCNNCC=C` stands “active; inactive”; under `ClCc1ccccc1`, “active”; under `NC1=NCN([C@@H]2O[C@H](CO)[C@@H](O)[C@H]2O)C(=O)N1`, “inactive; active”.
`CC(=O)OC/C=C(C)/C=C/C=C(C)/C=C/C1=C(C)CCCC1(C)C`: the outcome was “active; inactive”.
The result for `NCCS(=O)(=O)O` reads “inactive; active”; that for `OC[C@@H](O)[C@@H](O)[C@H](O)[C@H](O)CO`, “inactive”.
On to `O=C1C(c2[nH]c3ccc(S(=O)(=O)O)cc3c2O)=Nc2ccc(S(=O)(=O)O)cc21`, for which the outcome is “inactive; active”.
As to `CCOC(=O)C(O)(c1ccc(Cl)cc1)c1ccc(Cl)cc1`, the outcome was active.
Under `Cc1[nH]cnc1CSCCN=C(NC#N)N(C)N=O` stands “inactive; active”; under `OB(O)O`, “inactive; active”; under `CCCl`, “active; inactive”.
Under `F[B-](F)(F)F` stands “inactive”; under `CNC(=O)c1c(N(C)N=O)ncn1C`, “active”; under `Cn1nc(CO)nc1NCCCOc1cccc(CN2CCCCC2)c1`, “active”.
As for `CCC1(c2ccccc2)C(=O)N=C(O)NC1=O` (stereo not given), the result was active.
The result for `Nc1ccc(N=Nc2ccc(N)cc2)cc1` reads “inactive; active”.
On to `Clc1ccc2c(c1)Oc1ccc(Cl)cc1O2`, for which the outcome was inactive.
Under `CCCCN(CCCC)N=O` stands “active”.
Under `C[N+](=O)[O-]` stands “active”; under `C[C@]12CC[C@H]3C(=CCc4cc(OS(=O)(=O)O)ccc43)[C@@H]1CCC2=O`, “inactive; active”; under `CC(Oc1c(Cl)cccc1Cl)C1=NCCN1` (stereo not given), “inactive”.
Under `Cc1ccc(C)c(C)c1` stands “active”.
As for `NNCCO`, the outcome is “active; inactive”.
Under `CCOP(=S)(OCC)Oc1nc(Cl)c(Cl)cc1Cl` stands “inactive”; under `Nc1ccc(N)c2c1C(=O)c1c(N)ccc(N)c1C2=O`, “active”.
Under `ClCOCC(COCCl)OCCl` stands “active”; under `Cc1cc2ncccc2c2nc(N)n(C)c12`, “active”; under `Clc1ccc(Cl)cc1`, “active”.
For `O=[N+]([O-])c1ccc2c3c(cccc13)CC2`, the result was active.
The result for `CN(C)c1ccc(N=Nc2ccccc2)cc1` reads “active”.
As for `Nc1cc(S(=O)(=O)O)cc2cc(S(=O)(=O)O)c(N=Nc3ccc(-c4ccc(N=Nc5c(S(=O)(=O)O)cc6cc(S(=O)(=O)O)cc(N)c6c5O)cc4)cc3)c(O)c12`, the result was active.
Under `CN(N=O)C(=O)N[C@@H]1[C@@H](O)[C@H](O)[C@@H](CO)O[C@@H]1O` stands “active”; under `N[C@@H](CCC(=O)NNc1ccc(C(=O)O)cc1)C(=O)O`, “active; inactive”.
The result for `CCNC(=O)N(CCO)N=O` reads “active”; that for `CCCCCCC(=O)/C=C/CCCCCCCCC(=O)OC`, “inactive; active”; that for `Nc1ccc2c(c1)oc1ccccc12`, “active”.
The result for `O=C1c2ccccc2C(=O)c2ccccc21` reads “inactive”; that for `Cc1ccc2c(-c3cccc(O)c3)nc(=O)n(C(C)C)c2c1`, “inactive”.
For the compound `[O]=[Cr][O][Cr]=[O]`, the outcome was inactive.
Under `C=C/C1=C/[C@H](C)[C@](C)(OC(C)=O)C(=O)OCC2=CC[N+]3(C)CC[C@@H](OC1=O)C23[O-]` (stereo not given in full) stands “active; inactive”; under `COc1c2occc2cc2ccc(=O)oc12`, “active”.
Under `Cc1ccc(O)c(O)c1` stands “active; inactive”; under `Clc1cc2c(c(Cl)c1Cl)Oc1c(cc(Cl)c(Cl)c1Cl)O2`, “active”; under `CC(C)=NO`, “active”.
With `C=CCCl`, the outcome is “inactive; active”.
The result for `Cc1ccc2ncccc2c1` reads “inactive”; that for `CCN(CC)CCOc1ccc(/C(=C(\Cl)c2ccccc2)c2ccccc2)cc1`, “inactive; active”.
Regarding `FC(F)(F)CCl`, the outcome was “active; inactive”.
The result for `O=NN1CCOC1` reads “active; inactive”.
Under `Cc1cc(N)ccc1N` stands “inactive”; under `CC(=O)NNC(C)=O`, “inactive”.
Under `S=C([S-])NCCNC(=S)[S-].[Mn+2]` stands “active”; under `ClC(Cl)Br`, “active”.
Regarding `COc1cc(OC)c2c3c(c(=O)oc2c1)CCC3`, the outcome was inactive.
Regarding `CN(N=O)c1ccc(F)cc1`, the outcome was active.
The result for `CC(=O)[O][Hg][c]1ccccc1` reads “inactive”.
Under `Nc1ccc(Cl)c(N)c1` stands “active”; under `O=CNNC=O`, “active”.
For `Cc1ncc([N+](=O)[O-])n1C`, the outcome was active.
The result for `CCN(CC)CCCNC(=O)Cn1ncc(-c2ccccc2)c1-c1ccccc1` reads “inactive”; that for `CC(Oc1cc(Cl)c(Cl)cc1Cl)C(=O)O` (stereo not given), “inactive”; that for `Nc1ccc2cc3ccc(N)cc3nc2c1`, “inactive”.
The result for `CC(=O)NCc1nc(-c2ccc([N+](=O)[O-])o2)no1` reads “active”; that for `Cc1ccc(S(=O)(=O)NC(=O)NN2CCCCCC2)cc1`, “inactive”.
Turning to `O=S(O)S(=O)(=O)O`, the result was inactive.
Under `COc1ccc(C)cc1N` stands “active”; under `OCCOCCOCCO`, “inactive”; under `O=C1c2ccccc2CN2C(=O)c3ccccc3CN12`, “active”.
For the compound `C/C(=C(\CCOC(=O)c1ccccc1)SC(=O)c1ccccc1)N(C=O)Cc1cnc(C)nc1N`, the outcome was “inactive; active”.
The result for `N[C@@H](CC(=O)O)C(=O)O` reads “inactive; active”.
The result for `CCCCCCCC(=O)OCC(COC(=O)CCCCCCC)OC(=O)CCCCCCC` reads “active”.
For the compound `Cc1c(C)c2c(c(C)c1O)CCC(C)(CCCC(C)CCCC(C)CCCC(C)C)O2` (stereo not given), the result was inactive.
The result for `CCN(Cc1cccc(S(=O)(=O)O)c1)c1ccc(C(=C2C=CC(=[N+](CC)Cc3cccc(S(=O)(=O)[O-])c3)C=C2)c2ccc(S(=O)(=O)O)cc2)cc1` reads “active”; that for `CCCCCC(N)=O`, “active”.
The result for `CCOC(=O)N(CC)N=O` reads “active; inactive”; that for `CC(C)CN(N=O)C(=N)N[N+](=O)[O-]`, “inactive”.
Under `C=C(Cl)CSC(=S)N(CC)CC` stands “active; inactive”.
As to `O=C1NC(=O)C(c2ccccc2)(c2ccccc2)N1`, the outcome was active.
Under `Cc1ccc2cc3c(ccc4ccccc43)c3c2c1CC3` stands “active; inactive”; under `ClC(Cl)C(Cl)Cl`, “active”.
Under `C=CC(O)c1ccc2c(c1)OCO2` (stereo not given) stands “active”.
`CNC(=O)Oc1cc(C)c(N(C)C)c(C)c1`: the result was inactive.
Under `O=c1cc[nH]c(=O)[nH]1` stands “active; inactive”; under `CCn1nc(C)c2c1C(c1ccccc1)=NCC(=O)N2`, “active”.
Under `CN(C)c1ccccc1` stands “active”; under `CN(C#N)N=O`, “active”.
The result for `Cn1cc(C(=O)O)c(=O)c2ccc(/C=C/c3ccc([N+](=O)[O-])o3)nc21` reads “active; inactive”; that for `C#C[C@]1(OC(C)=O)CC[C@H]2[C@@H]3CCC4=CC(=O)CC[C@@H]4[C@H]3CC[C@@]21C`, “active”; that for `CCOc1ccc(NC(C)=O)cc1N`, “active”.
For `OC[C@@H](O)[C@@H](O)[C@H](O)[C@H](O)CO[C@H]1O[C@H](CO)[C@@H](O)[C@H](O)[C@H]1O`, the outcome was inactive.
`Cc1cc(C)c(N)cc1C`: the result was active.
